Results as given in PMC3849221 (NeuroImage, 2013).
Like-named read-outs stand apart in the source and are kept apart here.

Assays:
[1] = tested on: CB1 receptor; conditions: ref Terry et al., 2010, cited from earlier work; for Specific binding (%) / VT (striatum) Baseline / VT (striatum) Preblocked: monkey striatum
[2] = Lipophilicity LogD7.4; assay type: physicochemical; conditions: n-octanol / 0.15 M sodium phosphate buffer pH 7.4, room temperature, 6 measurements
[3] = target: T1, CB1 receptor (Homo sapiens, UniProt P21554); conditions: cited from earlier work; for VT / Intersubject Variability of VT (SD/mean): human; for VT: mean±SD
T1 sequence (P21554 whole entry): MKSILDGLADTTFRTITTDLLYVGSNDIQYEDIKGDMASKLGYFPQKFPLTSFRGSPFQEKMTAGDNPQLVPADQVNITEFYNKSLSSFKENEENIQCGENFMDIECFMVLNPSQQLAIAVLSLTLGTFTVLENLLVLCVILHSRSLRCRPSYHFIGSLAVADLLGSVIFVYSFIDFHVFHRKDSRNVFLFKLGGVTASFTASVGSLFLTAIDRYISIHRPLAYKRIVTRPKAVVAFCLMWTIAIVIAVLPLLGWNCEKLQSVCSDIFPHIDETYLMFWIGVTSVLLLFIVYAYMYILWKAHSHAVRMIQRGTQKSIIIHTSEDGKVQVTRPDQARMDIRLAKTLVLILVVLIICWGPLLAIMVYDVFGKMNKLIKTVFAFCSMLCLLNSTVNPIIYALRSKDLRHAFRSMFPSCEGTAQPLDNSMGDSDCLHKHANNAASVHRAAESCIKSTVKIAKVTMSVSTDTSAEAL

[4] = target: T1, CB1 receptor; assay type: binding
[5] = Frontal, n=9, 120min, ref Terry et al., 2010
[6] = Putamen, n=9, 120min, ref Terry et al., 2010
[7] = Thalamus, n=9, 120min, ref Terry et al., 2010
[8] = Cingulate, n=10, 90min, ref Wong et al, 2010
[9] = Globus pallidus, n=10, 90min, ref Wong et al, 2010
[10] = Putamen, n=10, 90min, ref Wong et al, 2010
[11] = human parietal cortex, displacement of [3H]MePPEP, n=6
[12] = Frontal, n=17, 150min, ref Terry et al, 2009
[13] = Putamen, n=17, 150min, ref Terry et al, 2009
[14] = Thalamus, n=17, 150min, ref Terry et al, 2009

[2H]C([18F])Oc1cccc([C@H]2C[C@@H](N[C@H](C)c3ccccc3)C(=O)N2c2ccc(C(F)(F)F)cc2)c1 (stereo partly shown) [^18F-FMPEP-d2]
percentage of specific binding in monkey brain ([1]; monkey brain): 85%
Specific binding (%) [1]: 85%
VT (striatum) Baseline [1]: 35.4 mL·cm^−3
VT (striatum) Preblocked [1]: 5.4 mL·cm^−3
LogD7.4 [2]: 4.24±0.08
VT [3, 5]: 22.7±6.4 mL · cm^−3
Intersubject Variability of VT (SD/mean) [3, 5]: 28%
VT [3, 6]: 24.3±7.2 mL · cm^−3
Intersubject Variability of VT (SD/mean) [3, 6]: 29%
VT [3, 7]: 9.6±2.5 mL · cm^−3
Intersubject Variability of VT (SD/mean) [3, 7]: 26%
peak brain uptake ([3]; species not given, ref Terry et al., 2010): ~ 6 SUV

COc1ccc(-c2c(C#N)c(C(=O)NN3CCCCC3)nn2-c2ccc(Cl)cc2Cl)cc1 [^11C-OMAR]
Ki [4]: 2.05 nM
VT [3, 8]: 1.23±0.16 mL · cm^−3
Intersubject Variability of VT (SD/mean) [3, 8]: 13%
VT [3, 9]: 1.47±0.25 mL · cm^−3
Intersubject Variability of VT (SD/mean) [3, 9]: 17%
VT [3, 10]: 1.32±0.20 mL · cm^−3
Intersubject Variability of VT (SD/mean) [3, 10]: 15%

Cc1ccc(OC(C)(C)C(=O)N[C@@H](C)[C@@H](Cc2ccc(OCCF)cc2)c2cccc(C#N)c2)nc1 [^18F-MK-9470]
Intersubject Variability of VT (SD/mean) ([3]; Frontal, n=12, 700, 360, 150min, ref Sanabria-Bohórquez et al., 2010): 58%
Intersubject Variability of VT (SD/mean) ([3]; Putamen, n=12, 700, 360, 150min, ref Sanabria-Bohórquez et al., 2010): 53%
Intersubject Variability of VT (SD/mean) ([3]; Thalamus, n=12, 700, 360, 150min, ref Sanabria-Bohórquez et al., 2010): 60%

COc1ccc(-c2c(C#N)c(C(=O)NN3CCCCC3)nn2-c2ccc(Cl)cc2Cl)cc1 [OMAR]
Ki [4, 11]: 2.05 nM

C[C@@H](N[C@@H]1C[C@H](c2cccc(O[11CH3])c2)N(c2ccc(C(F)(F)F)cc2)C1=O)c1ccccc1 [^11C-MePPEP]
Specific binding (%) [1]: 88%
VT (striatum) Baseline [1]: 24.3 mL·cm^−3
VT (striatum) Preblocked [1]: 2.9 mL·cm^−3
LogD7.4 [2]: 4.77±0.27
VT [3, 12]: 22.4±12.8 mL · cm^−3
Intersubject Variability of VT (SD/mean) [3, 12]: 57%
VT [3, 13]: 29.1±17.4 mL · cm^−3
Intersubject Variability of VT (SD/mean) [3, 13]: 60%
VT [3, 14]: 11.2±5.0 mL · cm^−3
Intersubject Variability of VT (SD/mean) [3, 14]: 44%

N#Cc1ccc(S(=O)(=O)NC(=N)N2CC(c3ccccc3)C(c3ccc(Cl)cc3)=N2)cc1 (stereo not drawn) [^11C-SD5024, [cyano-^11C](−)-3-(4-chlorophenyl)-N-[(4-cyanophenyl)sulfonyl]-4-phenyl-4,5-dihydro-1H-pyrazole-1-carboxamidine]
Ki [4, 11]: 0.47 nM
